The test deals with T1, glucocorticoid receptor (Homo sapiens, UniProt P04150).
T1 construct: endogenous in cells
T1 sequence (P04150 1-777): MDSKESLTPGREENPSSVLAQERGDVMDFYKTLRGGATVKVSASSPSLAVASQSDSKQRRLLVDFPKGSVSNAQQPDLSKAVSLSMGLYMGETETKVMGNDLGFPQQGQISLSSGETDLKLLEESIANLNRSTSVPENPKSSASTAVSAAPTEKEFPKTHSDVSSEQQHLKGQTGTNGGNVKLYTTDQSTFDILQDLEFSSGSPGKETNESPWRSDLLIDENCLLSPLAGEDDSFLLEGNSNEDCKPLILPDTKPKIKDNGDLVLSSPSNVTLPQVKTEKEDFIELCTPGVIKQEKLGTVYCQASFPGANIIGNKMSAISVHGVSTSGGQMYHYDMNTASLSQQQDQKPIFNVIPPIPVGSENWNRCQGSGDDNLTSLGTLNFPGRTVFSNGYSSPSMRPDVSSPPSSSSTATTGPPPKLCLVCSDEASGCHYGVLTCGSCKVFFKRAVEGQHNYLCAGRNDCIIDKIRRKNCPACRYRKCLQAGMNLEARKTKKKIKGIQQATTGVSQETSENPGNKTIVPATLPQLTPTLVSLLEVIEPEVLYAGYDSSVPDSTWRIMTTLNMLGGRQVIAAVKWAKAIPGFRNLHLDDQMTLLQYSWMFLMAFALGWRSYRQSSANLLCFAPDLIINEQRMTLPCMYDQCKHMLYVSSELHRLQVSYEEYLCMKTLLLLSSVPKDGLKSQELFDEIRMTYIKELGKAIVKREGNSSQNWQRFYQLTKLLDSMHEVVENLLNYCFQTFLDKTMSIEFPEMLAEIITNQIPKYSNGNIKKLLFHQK
The experiment in a line: Ligand binding assay (GR BIND). In a few lines:
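Cytosol from freeze–thawed cells in TEGM (pH 7.2, 10 mM molybdate) was incubated overnight at 4 °C with compound and [3H]-dexamethasone trace (added as 6 nM solution), 2% EtOH final. Bound ligand was captured on hydroxylapatite, filtered, washed and scintillation counted. Values were calculated with dexamethasone as reference.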

`C[C@]12Cc3cnn(-c4ccc(F)cc4)c3C=C1CC[C@@H]2CN(CCc1ccccn1)S(=O)(=O)CCN1C(=O)c2ccccc2C1=O` [Example 152, 2-(1,3-dioxo-1,3-dihydro-2H-isoindol-2-yl)-N-{[(4αR,5S)-1-(4-fluorophenyl)-4α-methyl-1,4,4α,5,6,7-hexahydrocyclopenta[f]indazol-5-yl]methyl}-N-(2-pyridin-2-ylethyl)ethanesulfonamide]: the affinity corresponds to a Ki of 1.6 nM. That is a single-digit nanomolar value.

For the compound `C[C@]12Cc3cnn(-c4ccc(F)cc4)c3C=C1CC[C@@H]2CN(CCc1ccccn1)S(=O)(=O)Cc1ccccc1C(F)(F)F` [Example 153, N-{[(4αR,5S)-1-(4-fluorophenyl)-4α-methyl-1,4,4α,5,6,7-hexahydrocyclopenta[f]indazol-5-yl]methyl}-N-(2-pyridin-2-ylethyl)-1-[2-(trifluoromethyl)phenyl]methanesulfonamide], the affinity, expressed as Ki, was 1.2 nM.

In the case of `C[C@]12Cc3cnn(-c4ccc(F)cc4)c3C=C1CC[C@@H]2CN(CC(O)C(F)F)S(=O)(=O)Cc1cccnc1` (stereo partly drawn) [Example 154, N-(3,3-difluoro-2-hydroxypropyl)-N-{[(4αR,5S)-1-(4-fluorophenyl)-4α-methyl-1,4,4α,5,6,7-hexahydrocyclopenta[f]indazol-5-yl]methyl}-1-pyridin-3-ylmethanesulfonamide], the affinity, expressed as Ki, was 1.3 nM.

With `CCCS(=O)(=O)N(CC(O)C(F)F)C[C@H]1CCC2=Cc3c(cnn3-c3ccc(F)cc3)C[C@@]21C` (stereo partly drawn) [Example 155, N-(3,3-difluoro-2-hydroxypropyl)-N-{[(4αR,5S)-1-(4-fluorophenyl)-4α-methyl-1,4,4α,5,6,7-hexahydrocyclopenta[f]indazol-5-yl]methyl}propane-1-sulfonamide], the Ki (as a rule, the dissociation constant of the complex between target and ligand, obtained from inhibition or displacement) came to 2.9 nM. Against the preceding compound, the Ki is about 2.2-fold higher.

Turning to `Cn1cc(S(=O)(=O)N(CC(O)C(F)F)C[C@H]2CCC3=Cc4c(cnn4-c4ccc(F)cc4)C[C@@]32C)c(C(F)(F)F)n1` (stereo partly drawn) [Example 156, N-(3,3-difluoro-2-hydroxypropyl)-N-{[(4αR,5S)-1-(4-fluorophenyl)-4α-methyl-1,4,4α,5,6,7-hexahydrocyclopenta[f]indazol-5-yl]methyl}-1-methyl-3-(trifluoromethyl)-1H-pyrazole-4-sulfonamide], the inhibition constant Ki is 2.5 nM.

With `Cn1cc(S(=O)(=O)N(CC(O)c2ccccn2)C[C@H]2CCC3=Cc4c(cnn4-c4ccc(F)cc4)C[C@@]32C)c(C(F)(F)F)n1` (stereo partly drawn) [Example 157, N-{[(4αR,5S)-1-(4-fluorophenyl)-4α-methyl-1,4,4α,5,6,7-hexahydrocyclopenta[f]indazol-5-yl]methyl}-N-(2-hydroxy-2-pyridin-2-ylethyl)-1-methyl-3-(trifluoromethyl)-1H-pyrazole-4-sulfonamide], the affinity corresponds to a Ki of 0.8 nM.

`C[C@]12Cc3cnn(-c4ccc(F)cc4)c3C=C1CC[C@@H]2CN(CC=O)S(=O)(=O)c1ccccc1F` [Example 158, 2-fluoro-N-{[(4αR,5S)-1-(4-fluorophenyl)-4α-methyl-1,4,4α,5,6,7-hexahydrocyclopenta[f]indazol-5-yl]methyl}-N-(2-oxoethyl)benzenesulfonamide]: the affinity, expressed as Ki, was 4.2 nM.

Compound `COC(=O)c1ccccc1CCN(C[C@H]1CCC2=Cc3c(cnn3-c3ccc(F)cc3)C[C@@]21C)S(=O)(=O)CC(F)(F)F` [Example 159, methyl 2-(2-{{[(4αR,5S)-1-(4-fluorophenyl)-4α-methyl-1,4,4α,5,6,7-hexahydrocyclopenta[f]indazol-5-yl]methyl}[(2,2,2-trifluoroethyl)sulfonyl]amino}ethyl)benzoate] gave an inhibition constant Ki of 1.9 nM.

For the compound `COC(=O)c1cc(Cl)ccc1CCN(C[C@H]1CCC2=Cc3c(cnn3-c3ccc(F)cc3)C[C@@]21C)S(=O)(=O)CC(F)(F)F` [Example 160, methyl 5-chloro-2-(2-{{[(4αR,5S)-1-(4-fluorophenyl)-4α-methyl-1,4,4α,5,6,7-hexahydrocyclopenta[f]indazol-5-yl]methyl}[(2,2,2-trifluoroethyl)sulfonyl]amino}ethyl)benzoate], the Ki was 3.4 nM.

Regarding `Cc1noc(C)c1S(=O)(=O)NC[C@H]1CCC2=Cc3c(cnn3-c3ccc(F)cc3)C[C@@]21C` [Example 161, N-{[(4αR,5S)-1-(4-fluorophenyl)-4α-methyl-1,4,4α,5,6,7-hexahydrocyclopenta[f]indazol-5-yl]methyl}-3,5-dimethylisoxazole-4-sulfonamide], the inhibition constant Ki turned out to be 4.8 nM.

Consider `COC(=O)c1ccccc1CS(=O)(=O)N(CC(O)C(F)(F)F)C[C@H]1CCC2=Cc3c(cnn3-c3ccc(F)cc3)C[C@@]21C` (stereo partly drawn) [Example 162, methyl 2-({[{[(4αR,5S)-1-(4-fluorophenyl)-4α-methyl-1,4,4α,5,6,7-hexahydrocyclopenta[f]indazol-5-yl]methyl}(3,3,3-trifluoro-2-hydroxypropyl)amino]sulfonyl}methyl)benzoate], for which the affinity, expressed as Ki, was 0.5 nM.

In the case of `C[C@]12Cc3cnn(-c4ccc(F)cc4)c3C=C1CC[C@@H]2CN(CCc1ccccc1CO)S(=O)(=O)CC(F)(F)F` [Example 163, 2,2,2-trifluoro-N-{[(4αR,5S)-1-(4-fluorophenyl)-4α-methyl-1,4,4α,5,6,7-hexahydrocyclopenta[f]indazol-5-yl]methyl}-N-{2-[2-(hydroxymethyl)phenyl]ethyl}ethanesulfonamide], the affinity corresponds to a Ki of 1.7 nM.

As to `C[C@]12Cc3cnn(-c4ccc(F)cc4)c3C=C1CC[C@@H]2CN(CC(O)C(F)(F)F)S(=O)(=O)Cc1ccccc1C(=O)O` (stereo partly drawn) [Example 164, 2-({[{[(4αR,5S)-1-(4-fluorophenyl)-4α-methyl-1,4,4α,5,6,7-hexahydrocyclopenta[f]indazol-5-yl]methyl}(3,3,3-trifluoro-2-hydroxypropyl)amino]sulfonyl}methyl)benzoic acid], the inhibition constant Ki amounted to 3.2 nM.

`C[C@]12Cc3cnn(-c4ccc(F)cc4)c3C=C1CC[C@@H]2CN(CCc1ccccn1)S(=O)(=O)Cc1ccccn1` [Example 165, N-{[(4αR,5S)-1-(4-fluorophenyl)-4α-methyl-1,4,4α,5,6,7-hexahydrocyclopenta[f]indazol-5-yl]methyl}-1-pyridin-2-yl-N-(2-pyridin-2-ylethyl)methanesulfonamide] yielded a Ki of 1.6 nM.

`C[C@]12Cc3cnn(-c4ccc(F)cc4)c3C=C1CC[C@@H]2CN(CCc1ccccn1)S(=O)(=O)Cc1ccncc1` [Example 166, N-{[(4αR,5S)-1-(4-fluorophenyl)-4α-methyl-1,4,4α,5,6,7-hexahydrocyclopenta[f]indazol-5-yl]methyl}-1-pyridin-4-yl-N-(2-pyridin-2-ylethyl)methanesulfonamide] had a Ki of 1.6 nM.

For the compound `C[C@]12Cc3cnn(-c4ccc(F)cc4)c3C=C1CC[C@@H]2CN(CC(O)C(F)(F)F)S(=O)(=O)Cc1ccccc1C(N)=O` (stereo partly drawn) [Example 167, 2-({[{[(4αR,5S)-1-(4-fluorophenyl)-4α-methyl-1,4,4α,5,6,7-hexahydrocyclopenta[f]indazol-5-yl]methyl}(3,3,3-trifluoro-2-hydroxypropyl)amino]sulfonyl}methyl) benzamide], affinity was put at a Ki of 2.2 nM. The Ki values of the last two compounds are within 1.5-fold of each other.

`Cc1noc(C)c1S(=O)(=O)N(C[C@H]1CCC2=Cc3c(cnn3-c3ccc(F)cc3)C[C@@]21C)C[C@@H](C)O` [Example 168, N-{[(4αR,5S)-1-(4-fluorophenyl)-4α-methyl-1,4,4α,5,6,7-hexahydrocyclopenta[f]indazol-5-yl]methyl}-N-[(2R)-2-hydroxypropyl]-3,5-dimethylisoxazole-4-sulfonamide] gave an inhibitory constant (Ki) of 1.5 nM. The Ki values of the last two compounds are within 1.5-fold of each other.

(Values after patent publication US8299048B2, “Hexahydrocyclopentyl[f]indazole sulfonamides and derivatives thereof as selective glucocorticoid receptor modulators” (Merck Sharp & Dohme Corp., priority 2008, dated 2012).)
